Laboratory results as given in patent publication US8980614B2, “Staphylococcus haemolyticus prophage φSH2 endolysin is lytic for Staphylococcus aureus” (The United States of America, as represented by The …, priority 2012, dated 2015).

How the values were obtained:
[1] = system: MRSA strain NRS382; test: Control of systemic MRSA infection in a murine model; format: in vivo, Balb/c mice
[2] = system: S. aureus Newman cells; test: Zymogram with S. aureus Newman cells embedded in the gel; format: cell-based; details: 5 μg protein
Procedure: All purified proteins were analyzed with 15% SDS-PAGE, using a Kaleidoscope Precision Plus Protein Standard (BioRad, Hercules, Calif.). For zymograms, a 300 mL culture volume equivalent of live mid-log phase (OD600nm=0.4-0.6) cells of S. aureus strain Newman was embedded in the gel during polymerization. The protein samples were boiled in Laemmli sample buffer (BioRad) with β-mercaptoethanol, and electrophoresed with identical buffers and voltage for one hour in both the SDS-PAGE and the zymogram using a Mini-Protean TETRA gel system (BioRad). SDS gels were Coomassie stained and zymograms were washed in excess water and further incubated in deionized water for 60 min, followed by incubation in 10 mM Tris, pH 8.0 with 150 mM or 300 mM NaCl for 80 min. Areas of clearing in the turbid zymogram gel indicate a lytic protein in the gel.

[3] = system: S. aureus Newman cells; test: Turbidity reduction assay; format: cell-based, Staphylococcus aureus; details: 1 μM protein; for lytic (specific) activity compared with the full length φSH2 lysin: at optimum salt concentration; for lytic activity in turbidity reduction assays (in words): different NaCl concentrations
Procedure: The turbidity reduction assay measures a decrease in optical density of a bacterial suspension due to lysis of the target bacteria by a lytic protein. The assays were performed in a 96-well dish format essentially as described previously (Donovan et al. 2006, supra). In order to reduce the variability of the assay, frozen stocks of S. aureus Newman substrate cells were prepared in a large batch as described by Becker et al. (2009b, supra). Immediately prior to the assay, the frozen cells were thawed, washed, and resuspended in the desired assay buffer such that when 100 μl of cell suspension were added to 100 μl of lysis buffer+/−protein, the final suspension has an OD600nm of ˜1.0.
Protein constructs were assayed at a concentration of 1 μM, and the assay was performed at room temperature, measuring the OD600nm at 1 min intervals for 45 min. Buffer without enzyme served as the control. The steepest slopes of the resulting lysis curves, which correspond to the lytic activities of the proteins, were determined by a sliding window over each group of three consecutive time points for the entire 45 min period. Specific activities were expressed as ΔOD600nm/min/μM, and the “no enzyme” control value was subtracted from each experimental value.
In order to determine the effect of salt concentration on lytic activity, turbidity reduction assays were performed in 10 mM Tris buffers at pH 7.5 with varying NaCl concentrations between 0 mM and 600 mM. Accordingly, the influence of pH was determined by using a series of different buffers with pH values ranging from 3.5 to 10.0. Citrate buffers were used for pH 3.5, 4.5, 5.5, and 6.0, MOPS buffers for pH 6.5, 7.0, and 7.5, Tris buffers for pH 8.0 and 9.0, and Carbonate/bicarbonate buffer for pH 10.0. The concentration of the buffer substance in all buffers used was 20 mM, and the NaCl concentration was 200 mM. To test the effect of bivalent metal ions, assays were performed in 10 mM Tris, 200 mM NaCl, pH 7.5 supplemented with MgCl2, MnCl2, or CaCl2 at different concentrations (0.1 mM, 1 mM, 10 mM), buffer without metal ions serving as control.

[4] = 0 hours, mice infected i.p. with MRSA NRS382, treated 30 min post infection (φSH2 200 μg/mouse i.p.; Vancomycin 375 μg/mouse s.c.; Oxacillin 1250 μg/mouse s.c.)
[5] = 4 hours, same infection and treatment
[6] = 8 hours, same infection and treatment
[7] = 12 hours, same infection and treatment
[8] = 16 hours, same infection and treatment
[9] = 20 hours, same infection and treatment
[10] = 24 hours, same infection and treatment
[11] = 28 hours, same infection and treatment
[12] = 32 hours, same infection and treatment
[13] = 36 hours, same infection and treatment
[14] = 40 hours, same infection and treatment
[15] = 44 hours, same infection and treatment
[16] = after incubation in deionized water for 60 min
[17] = water 60 min, then 10 mM Tris, 150 mM NaCl, pH 8.0 up to 80 min

Molecule | % Survival [1, 4] | % Survival [1, 5] | % Survival [1, 6] | % Survival [1, 7] | % Survival [1, 8] | % Survival [1, 9] | % Survival [1, 10] | % Survival [1, 11] | % Survival [1, 12] | % Survival [1, 13] | % Survival [1, 14] | % Survival [1, 15] | lysis in zymogram [2, 16] | lysis in zymogram [2, 17] | lytic (specific) activity compared with the full length φSH2 lysin [3] | lytic activity in turbidity reduction assays (in words) [3] | other results
Cc1onc(-c2ccccc2)c1C(=O)N[C@@H]1C(=O)N2[C@@H]1SC(C)(C)[C@@H]2C(=O)O [Oxacillin] | 100% | 100% | 100% | 100% | 100% | 40% | 40% | 30% | 30% | 30% | 30% | 30% |  |  |  |  | survival rate ([1]; after 16 to 20 hours, Oxacillin 1250 μg/mouse s.c. 30 min post infection): less than 40%
CN[C@H](CC(C)C)C(=O)N[C@H]1C(=O)N[C@@H](CC(N)=O)C(=O)N[C@H]2C(=O)N[C@H]3C(=O)N[C@H](C(=O)N[C@H](C(=O)O)c4cc(O)cc(O)c4-c4cc3ccc4O)[C@H](O)c3ccc(c(Cl)c3)Oc3cc2cc(c3O[C@@H]2O[C@H](CO)[C@@H](O)[C@H](O)[C@H]2O[C@H]2C[C@](C)(N)[C@H](O)[C@H](C)O2)Oc2ccc(cc2Cl)[C@H]1O [Vancomycin] | 100% | 100% | 100% | 100% | 100% | 100% | 100% | 100% | 100% | 100% | 100% | 100% |  |  |  |  | % Survival ([1]; 48 hours (end of the experiment), same infection and treatment): 100%
C1: CHAP plus amidase domain, lacks SH3b (1-397), SEQ ID NO:16 (protein, Bacteriophage Phi SH2) MKTQAEINKRLDAYRKGTVDSPYRVKVWTSYDNRFYPMEPGCIDVDKSFHAQCADLTIDYILWLTDNEFRIRGNAKDAINPKKNKLPEGWKIVLNRPSTVPRKGWIAVFTDGTYWEYGHIGMVYDGGNTSRFQILEQNWNGWANKKPSLRWDNYYGLTHFIVPPVAKENKAVSSSKQQAPKQKVKKASTKKALPKITKHITGYNMDKRGYNPKGVVLHNDAGGMNYKQYYNNLVNANYDRLARGIAHAYVDRTGIWEAIDESRIAWHVADGTRPGSGNHDFYGIEVNQSLRASDKEFLENEQAVFQFAAEKLKKWGLPANRNTVRLHNEFSQTSCPHRSMVLHTGLDPLYHSITEHARLKLKDYFIKQIRAYMDGKKPTSKVVVSKPGSASTPATRKLEHHHHHH |  |  |  |  |  |  |  |  |  |  |  |  | faint zones of lysis | considerably weaker | about half the activity | drastically reduced activity | 
D1: Isolated amidase domain (178-397), SEQ ID NO:20 (protein, Bacteriophage Phi SH2) MQAPKQKVKKASTKKALPKITKHITGYNMDKRGYNPKGVVLHNDAGGMNYKQYYNNLVNANYDRLARGIAHAYVDRTGIWEAIDESRIAWHVADGTRPGSGNHDFYGIEVNQSLRASDKEFLENEQAVFQFAAEKLKKWGLPANRNTVRLHNEFSQTSCPHRSMVLHTGLDPLYHSITEHARLKLKDYFIKQIRAYMDGKKPTSKVVVSKPGSASTPATRKLEHHHHHH |  |  |  |  |  |  |  |  |  |  |  |  |  |  |  | only background levels of activity | lysis in zymogram ([2]; water 60 min, then 10 mM Tris, 300 mM NaCl, pH 8.0 for 80 min): pronounced lytic band
B1: Fusion of intact φSH2 CHAP and SH3b domains (1-166 + 341-493), SEQ ID NO:12 (protein, Bacteriophage Phi SH2) MKTQAEINKRLDAYRKGTVDSPYRVKVWTSYDNRFYPMEPGCIDVDKSFHAQCADLTIDYILWLTDNEFRIRGNAKDAINPKKNKLPEGWKIVLNRPSTVPRKGWIAVFTDGTYWEYGHIGMVYDGGNTSRFQILEQNWNGWANKKPSLRWDNYYGLTHFIVPPVALEVLHTGLDPLYHSITEHARLKLKDYFIKQIRAYMDGKKPTSKVVVSKPGSASTPATRKDANGYRENPHGTLYKEEHATFTANANIITRYVGPFTNMPQAGILKAGQTIIYDEVMKQDGYIWVGYTAYNGKRVYLPVRKWNRETDSVGKLWGVISLEHHHHHH |  |  |  |  |  |  |  |  |  |  |  |  | faint zones of lysis | considerably weaker |  | completely abolished its activity | 
E1: Amidase plus SH3b domain (178-493), SEQ ID NO:24 (protein, Bacteriophage Phi SH2) MQAPKQKVKKASTKKALPKITKHITGYNMDKRGYNPKGVVLHNDAGGMNYKQYYNNLVNANYDRLARGIAHAYVDRTGIWEAIDESRIAWHVADGTRPGSGNHDFYGIEVNQSLRASDKEFLENEQAVFQFAAEKLKKWGLPANRNTVRLHNEFSQTSCPHRSMVLHTGLDPLYHSITEHARLKLKDYFIKQIRAYMDGKKPTSKVVVSKPGSASTPATRKDANGYRENPHGTLYKEEHATFTANANIITRYVGPFTNMPQAGILKAGQTIIYDEVMKQDGYIWVGYTAYNGKRVYLPVRKWNRETDSVGKLWGVISLEHHHHHH |  |  |  |  |  |  |  |  |  |  |  |  |  | only very faint lysis | about half the activity |  | 
